Drawing on patent US10919902B2, “Hetero-halo inhibitors of histone deacetylase” (Alkermes, Inc., priority 2015, dated 2021), this text covers IC50 for 71 compounds.

This experiment deals with recombinant human HDACs (Homo sapiens). Put plainly: HDAC enzymatic assay. The format is biochemical. The conditions noted are these: 5 nM HDAC enzyme, 5 h pre-incubation, 17 h reaction at 25° C.; isoform not given; read-out: IC50. The protocol:
All recombinant human HDACs were purchased from BPS Bioscience. The substrate, FAM-TSRHK(AC)KL-CONH, was synthesized at NanoSyn. Final assay reactions contained 100 mM HEPES (pH 7.5), 50 mM KCl, 0.1% BSA, 0.01% Triton X-100, 1% DMSO, 1 uM substrate and 5 nM HDAC enzyme. Enzyme and compounds were pre-incubated at 25° C. for 5 hours and reactions were initiated by addition of substrate. 10 uL reactions were incubated for 17 hours at 25° C. and terminated by the addition of 40 uL of buffer containing 100 mM HEPES (pH 7.5), 0.1% BSA, 0.01% Triton X-100 and 0.05% SDS. Substrate and product peptides present in each sample were separated electrophoretically using the LabChip 3000 capillary electrophoresis instrument. Change in the relative fluorescence intensity of the substrate and product peaks reflects enzyme activity. Reaction progress was determined as the product to sum ratio (PSR):P/(S+P), where P is the peak height of the product peptide and S is the peak height of the substrate peptide. Reactions were performed in duplicate at 12 concentrations, (3× serial dilutions starting at 30 uM). IC50 values were calculated using a 4 Parameter Logistic Model.
With `Cn1cc(CN2CCCC3(CCN(C(=O)Nc4nn(-c5ccc(F)cc5)cc4N)C3)C2)cn1` (centres unmarked) [Compound 123], the IC50 is greater than 5000 nM. As for `COc1cccc(CN2CCCC3(CCN(C(=O)Nc4nn(-c5ccc(F)cc5)cc4N)C3)C2)c1` (centres unmarked) [Compound 124], the IC50 is greater than 5000 nM.

`Nc1cn(-c2ccc(F)cc2)nc1NC(=O)N1CCN(C(=O)[C@@H]2C[C@H]2c2ccccc2)CC1` [Compound 125]: the IC50 lay within 500 to 5000 nM.

Regarding `Cc1cnc(C(=O)Nc2nn(-c3ccccc3)cc2N)s1` [Compound 126], the IC50 lay in the range of 500 to 5000 nM. Under `Nc1ccc(-c2ccc(F)cc2)nc1NC(=O)N1CC2CC(N3CCC3)CC2C1` (centres unmarked) [Compound 143] stands 500 to 5000 nM.

As for `Nc1ccc(-c2cccs2)nc1NC(=O)N1Cc2cc(CN3CCCC3)cnc2C1` [Compound 144], the IC50 was 100 to 500 nM. Take `CN(C)Cc1cnc2c(c1)CN(C(=O)Nc1nc(-c3cccs3)ccc1N)C2` [Compound 145]: the IC50 was in the range of 100 to 500 nM.

As for `CN(C)Cc1ccc(C2CN(C(=O)Nc3nc(-c4ccc(F)cc4)ccc3N)C2)cc1` [Compound 146], the IC50 was in the range of 100 to 500 nM.

As for `Nc1ccc(-c2ccc(F)cc2)nc1NC(=O)N1Cc2cnc(N3CCC3)cc2C1` [Compound 147], the IC50 fell in the range of 100 to 500 nM. Next, `CN1CCC(c2cc3c(cn2)CN(C(=O)Nc2nc(-c4ccc(F)cc4)ccc2N)C3)CC1` [Compound 149]: 100 to 500 nM; `Nc1ccc(-c2ccc(F)cc2)nc1NC(=O)N1Cc2cnc(N3CCOCC3)cc2C1` [Compound 150]: 100 to 500 nM; `Cc1cc2c(cn1)CN(C(=O)Nc1nc(-c3ccc(F)cc3)ccc1N)C2` [Compound 151]: 100 to 500 nM. Next, `CN1CC(N2CC3CN(C(=O)Nc4nc(-c5ccc(F)cc5)ccc4N)CC3C2)C1` (centres unmarked) [Compound 152]: 500 to 5000 nM; `CN1CCc2sc(C(=O)Nc3nc(-c4ccc(F)cc4)ccc3N)nc2C1` [Compound 153]: 100 to 500 nM. Under `CN(C)Cc1cnc2c(c1)CN(C(=O)Nc1nc(-c3ccc(F)cc3)ccc1N)C2` [Compound 154] stands 100 to 500 nM. On to `Nc1ccc(-c2ccc(F)cc2)nc1NC(=O)N1Cc2cc(CN3CCCC3)cnc2C1` [Compound 155], for which the IC50 fell in the range of 100 to 500 nM. Under `Nc1ccc(-c2cccs2)nc1NC(=O)N1Cc2nccnc2C1` [Compound 156] stands 100 to 500 nM; under `Nc1ccc(-c2ccc(F)cc2)nc1NC(=O)N1Cc2cc(N3CCC3)cnc2C1` [Compound 157], 100 to 500 nM. Take `Nc1ccc(-c2ccc(F)cc2)nc1NC(=O)N1Cc2cc(N3CCOCC3)cnc2C1` [Compound 158]: the concentration for half-maximal inhibition (IC50) was in the range of 100 to 500 nM. On to `CN1CCN(c2cnc3c(c2)CN(C(=O)Nc2nc(-c4ccc(F)cc4)ccc2N)C3)CC1` [Compound 159], for which the IC50 lay in the range of 100 to 500 nM. Regarding `CN1CCN(c2cc3c(cn2)CN(C(=O)Nc2nc(-c4ccc(F)cc4)ccc2N)C3)CC1` [Compound 160], the IC50 was 100 to 500 nM. Next, `CN(C)Cc1cnc2c(c1)CN(C(=O)Nc1nc(-c3cccnc3)ccc1N)C2` [Compound 161]: 100 to 500 nM; `CN(C)Cc1cc2c(cn1)CN(C(=O)Nc1nc(-c3ccc(F)cc3)ccc1N)C2` [Compound 162]: 100 to 500 nM; `CN1CCc2sc(C(=O)Nc3nc(-c4ccco4)ccc3N)nc2C1` [Compound 163]: 100 to 500 nM. In the case of `Nc1ccc(-c2cccnc2)nc1NC(=O)c1nc2c(s1)CCN(CCF)C2` [Compound 164], the IC50 fell in the range of 500 to 5000 nM.

`Nc1ccc(-c2ccc(F)cc2)nc1NC(=O)c1nc2c(s1)CCN(CCF)C2` [Compound 165]: the IC50 fell in the range of 100 to 500 nM. For the compound `CN(C)CCN1CC2CN(C(=O)Nc3nc(-c4ccc(F)cc4)ccc3N)CC2C1` (centres unmarked) [Compound 166], the IC50 was in the range of 500 to 5000 nM. `Nc1ccc(-n2cccn2)nc1NC(=O)N1CC2CN(CCF)CC2C1` (centres unmarked) [Compound 167]: the IC50 was greater than 5000 nM. Next, `CN1CCN(Cc2cnc3c(c2)CN(C(=O)Nc2nc(-c4ccc(F)cc4)ccc2N)C3)CC1` [Compound 168]: 100 to 500 nM; `CN1CCC(N2CC3CN(C(=O)Nc4nc(-c5ccc(F)cc5)ccc4N)CC3C2)CC1` (centres unmarked) [Compound 169]: 500 to 5000 nM. Next, `Cc1ccc(C2CN(C(=O)Nc3nc(-c4ccc(F)cc4)ccc3N)C2)cc1` [Compound 170]: 500 to 5000 nM; `Nc1ccc(-c2cccnc2)nc1NC(=O)N1CCC2(CCCNC2)C1` (centres unmarked) [Compound 171]: greater than 5000 nM. Under `Nc1ccc(-c2ccc(F)cc2)nc1NC(=O)N1CC2CC(NC3COC3)CC2C1` (centres unmarked) [Compound 172] stands 500 to 5000 nM. On to `COc1ccc(-c2ccc(N)c(NC(=O)N3Cc4ccncc4C3)n2)cc1` [Compound 173], for which the IC50 was 500 to 5000 nM. Regarding `Nc1ccc(-c2ccco2)nc1NC(=O)N1CC2CN(CCF)CC2C1` (centres unmarked) [Compound 174], the IC50 is greater than 5000 nM. Next, `Nc1ccc(-c2ccco2)nc1NC(=O)N1CC2CN(Cc3ccccc3F)CC2C1` (centres unmarked) [Compound 175]: greater than 5000 nM.

Consider `Nc1ccc(-c2ccc(F)cc2)nc1NC(=O)N1CC2CN(Cc3ccccc3F)CC2C1` (centres unmarked) [Compound 176], for which the IC50 is 500 to 5000 nM. On to `Nc1ccc(-n2cccn2)nc1NC(=O)N1CC2CN(Cc3ccccc3F)CC2C1` (centres unmarked) [Compound 177], for which the IC50 is greater than 5000 nM. Under `CN1CCN(Cc2cccc3c2CN(C(=O)Nc2nc(-c4ccc(F)cc4)ccc2N)C3)CC1` [Compound 178] stands greater than 5000 nM; under `CN1CCN(C2CC3CN(C(=O)Nc4nc(-c5ccc(F)cc5)ccc4N)CC3C2)CC1` (centres unmarked) [Compound 179], 500 to 5000 nM; under `Nc1ccc(-c2ccc(F)cc2)nc1NC(=O)N1CC2CC(N3CCOCC3)CC2C1` (centres unmarked) [Compound 181], greater than 5000 nM. In the case of `Nc1ccc(-c2ccco2)nc1NC(=O)N1CC2CN(C3COC3)CC2C1` (centres unmarked) [Compound 182], the IC50 was greater than 5000 nM. `Nc1ccc(-c2ccc(F)cc2)nc1NC(=O)N1CC2CN(CCF)CC2C1` (centres unmarked) [Compound 183]: the IC50 was greater than 5000 nM. Next, `CN1CC2CN(C(=O)Nc3nc(-n4cccn4)ccc3N)CC2C1` (centres unmarked) [Compound 184]: greater than 5000 nM; `Nc1ccc(-n2cccn2)nc1NC(=O)N1Cc2cc(F)cnc2C1` [Compound 185]: 500 to 5000 nM. Next, `Nc1ccc(-c2ccc(F)cc2)nc1NC(=O)N1Cc2cc(F)cnc2C1` [Compound 186]: 500 to 5000 nM. `COc1ccc(-c2ccc(N)c(NC(=O)N3Cc4cc(F)cnc4C3)n2)cc1` [Compound 187]: the IC50 was in the range of 500 to 5000 nM. Consider `Nc1ccc(-c2ccc(F)cc2)nc1NC(=O)N1CC2CC(N3CC(F)C3)CC2C1` (centres unmarked) [Compound 188], for which the IC50 lay within 500 to 5000 nM. For `Nc1ccc(-c2ccco2)nc1NC(=O)N1CC2CC(N3CC(F)C3)CC2C1` (centres unmarked) [Compound 189], the IC50 was greater than 5000 nM. Consider `Nc1ccc(-n2cccn2)nc1NC(=O)N1CC2CC(N3CC(F)C3)CC2C1` (centres unmarked) [Compound 190], for which the IC50 is greater than 5000 nM.

Take `Nc1ccc(-c2ccccc2)nc1NC(=O)N1CC2CC(NC3COC3)CC2C1` (centres unmarked) [Compound 191]: the IC50 is 500 to 5000 nM. For `Nc1ccc(-c2ccc(F)cc2)nc1NC(=O)C1CN(c2ccccn2)C1` [Compound 192], the half-maximal inhibitory concentration (IC50) was greater than 5000 nM. For the compound `Nc1ccc(-c2ccco2)nc1NC(=O)C1CN(c2ccccn2)C1` [Compound 193], the IC50 is greater than 5000 nM.

With `Nc1ccc(-c2ccccc2)nc1NC(=O)CN1CCn2cncc2C1` [Compound 194], the IC50 is greater than 5000 nM.

Consider `Nc1ccc(-c2ccccc2)nc1NC(=O)C1CN(c2ccccn2)C1` [Compound 195], for which the IC50 is greater than 5000 nM.

As to `CC(=O)N1CCN(CC(=O)Nc2nc(-c3ccccc3)ccc2N)CC1` [Compound 196], the IC50 is greater than 5000 nM. On to `Nc1ccc(-c2ccccc2)nc1NC(=O)N1CCn2ccnc2C1` [Compound 197], for which the IC50 was greater than 5000 nM. On to `Nc1ccc(-c2ccco2)nc1NC(=O)C1CN(Cc2ccccc2)C1` [Compound 198], for which the IC50 was greater than 5000 nM. Under `Nc1ccc(-c2ccccc2)nc1NC(=O)N1CC2CN(C3COC3)CC2C1` (centres unmarked) [Compound 199] stands greater than 5000 nM; under `CN1CC2CN(C(=O)Nc3nc(-c4ccc(F)cc4)ccc3N)CC2C1` (centres unmarked) [Compound 201], greater than 5000 nM; under `Nc1ccc(-c2ccc(F)cc2)nc1NC(=O)N1CC2CN(C3COC3)CC2C1` (centres unmarked) [Compound 203], greater than 5000 nM. Under `CN1CC(C(=O)Nc2nc(-c3ccc(F)cc3)ccc2N)C1` [Compound 204] stands greater than 5000 nM; under `Nc1ccc(-n2cccn2)nc1NC(=O)C1CN(Cc2ccccc2)C1` [Compound 205], greater than 5000 nM; under `CN1CCn2cc(C(=O)Nc3nc(-c4ccccc4)ccc3N)nc2C1` [Compound 206], 500 to 5000 nM. `Nc1ccc(-c2ccccc2)nc1NC(=O)c1cn2c(n1)CNCC2` [Compound 208]: the IC50 fell in the range of 500 to 5000 nM. Consider `CN1CCC2(CC1)CCN(C(=O)Nc1nc(-c3cccnc3)ccc1N)C2` [Compound 210], for which the IC50 is greater than 5000 nM. As to `CN1CCCC2(CCN(C(=O)Nc3nc(-c4cccnc4)ccc3N)C2)C1` (centres unmarked) [Compound 211], the IC50 was greater than 5000 nM. `Nc1ccc(-c2ccccc2)nc1NC(=O)N1CCn2cncc2C1` [Compound 212]: the IC50 is greater than 5000 nM. Next, `Nc1ccc(-c2cccnc2)nc1NC(=O)N1Cc2nccnc2C1` [Compound 214]: 500 to 5000 nM; `Cn1cc(CN2CCC3(CC2)CCN(C(=O)Nc2nc(-c4cccnc4)ccc2N)C3)cn1` [Compound 215]: greater than 5000 nM; `Nc1ccc(-c2cccnc2)nc1NC(=O)N1Cc2cc(F)cnc2C1` [Compound 218]: greater than 5000 nM.

What is called IC50 is the concentration that gives 50% inhibition.
